Consider one substance from patent US9018188B2, “MicroRNA inhibitors” (Ottawa Hospital Research Institute, priority 2011, dated 2015).

Holding throughout (type): in vivo, mouse
Assay [1] concerns epididymal white fat depots and liver. The assay can be described thus: H/E staining of fat depots and liver. The settings on record: mice fed the HFD. An excerpt:
(§1) This discrepancy may be related to the abnormally low respiratory exchange ratio (˜0.76) in the control mice fed with HFD (FIG. 7D), which indicates an increased proportion of lipid oxidation in the control mice. […] In addition, miR-133 ASO treatment also led to much improved glucose tolerance in both diet groups (FIGS. 6E & 7F).

A further assay is described as follows: IPGTT glucose tolerance. Particulars: both diet groups.
Source text: (B) Retarded body weight increase over a 16-week body weight monitoring time course in mice received miR-133 ASO treatment during TA muscle regeneration (n=6 per treatment group per diet group). […] Values of total energy expenditure were plotted without normalization to lean body mass. (D) Physical activities measured within light and dark cycles during indirect calorimetry (C) reveal increased physical activities within the dark cycle for miR-133 ASO treated mice (fed the RD). Physical activities are presented as arithmetic means of beam breaking events at X-, Y- and Z-dimensions. (E) IPGTT tests for C57BL/6 mice received either control- or miR-133 ASO treatment (fed the RD; n=6 per group). Error bars: S.E.M., asterisk: significant pair-wise comparison by t-test, *: p≦0.05, **: p≦0.01, ***: p≦0.001, n.s.: not significant.
as §1

In the next assay the test system is hindlimbs. The assay can be described thus: Thermographic imaging of hindlimb surface temperature. Here is the method:
Mouse thermographic imaging was performed with a FUR T640 infrared camera with highest sensitivity set to ˜35° C. Control- or miR-133 ASO treated C57BL/6 male mice fed with either a regular diet or a high fat diet were shaved at both of the hindlimbs one day before the imaging. Subject mice were quickly anesthetized under ˜1% isoflurane and thermographic images were taken immediately after the mice were anesthetized (within 2 minutes). Data analysis was performed using FUR QuickReport software with measuring crosses set on the TA muscle areas on lower hindlimbs and the neck areas.

The next assay deals with Ucp1. The assay can be described thus: Induction of Ucp1 and brown adipocytes in TA muscle (RT-qPCR, immunoblot, immunofluorescence, IHC). An excerpt: To investigate miR-133 function in brown adipose determination of satellite cells in vivo, Applicant synthesized miR-133 antagomiR (miR-133 antisense oligonucleotide (ASO)) with an antisense sequence to both miR-133a and miR-133b, as well as a control “antagomiR” (control ASO) with the same chemical modifications and not antisense to any mouse gene or EST sequence (see Experimental Procedures). Applicant performed lineage tracing to distinguish effects of miR-133 ASO on satellite cells versus other cell types. Six week old Pax7-CreER; R26R-tdTomato mice were treated with tamoxifin as before (5 consecutive daily injections), then aged to 10 weeks of age prior to initiating the experiment. Control ASO versus miR-133 ASO were injected into tibialis anterior (TA) muscles 3 days following saline injection (quiescent state) or cardiotoxin injection (to induce activation). After one month, RT-qPCR was performed using RNA isolated from several tissues to evaluate the efficacy and scope of miR-133 ASO administration.
To investigate whether miR-133 ASO was inducing satellite cells to undergo brown adipose determination in vivo, Applicant performed immunofluorescence microscopy on cross-sections prepared from regenerating TA muscles treated with control- or miR-133 ASO (FIG. 4C-D) Staining for Ucp1 and basal lamina-located Laminin confirmed Ucp1 staining only within miR-133 ASO treated regenerating muscles. […] In addition, Applicant observed that these interstitial cells were immunoreactive to Perilipin A, a marker for differentiated adipocytes, and nuclear Prdm16 (FIG. 4D).
To induce brown adipocytes in vivo, 10 mg/mL Cardiotoxin solution (50 μl) was intramuscularly injected into TA muscles of 10-week old Pax7-CreER/R26R-tdTomato mice (FIG. 4) or C57BL/6 mice (FIG. 5 and FIG. 6). Alternatively, frozen injury was performed by applying liquid nitrogen cooled tweezers tips directly onto the anterior sides of TA muscles. After 3 days, 20 μg of miR-133 antagomiR or control antagomiR in saline (50 μl) was intramuscularly injected into the same injured TA muscles (on right hindlimbs). To test efficacy of miR-133 ASO in intact muscles, saline, instead of Cardiotoxin, was injected to TA muscles before miR-133 ASO administration (FIGS. 4A, 4B). miR-133 antagomiR and scramble antagomiR were designed as previously described (Krutzfeldt et al., 2005).
The following antibodies and dilutions were used: anti-MyHC antibody (MF20, Developmental Studies Hybridoma Bank), 1:20 dilution; anti-Prdm16 antibody (generated in Dr. Patrick Seale's laboratory), 1:1,000 dilution; anti-Perilipin A antibody (Vala Sciences), 1:500 dilution; anti-Ucp1 antibody (Calbiochem), 1:200 dilution; anti-Laminin B2 antibody (Upstate), 1:500 dilution.
The following antibodies and dilutions were used: anti-Prdm16 antibody (generated in Dr. Patrick Seale's laboratory), 1:5,000 dilution; anti-Perilipin A antibody (Vala Sciences), 1:5,000 dilution; anti-Ucp1 antibody (Ab10983, Abeam), 1:1,000 dilution (FIGS. 4B, 5A, 7A); anti-Ucp1 antibody (Calbiochem), 1:1,000 dilution (FIG. 8C); anti-Ucp3 antibody (Ab3477, Abeam), 1:1,000 dilution; anti-Pgc1α antibody (Abeam), 1:1,000 dilution; anti-pan myosin heavy chain (MyHC) antibody (Developmental Studies Hybridoma Bank), 1:500; anti-DsRed (tdTomato) antibody (Ablab), 1:500; anti-α-Tubulin antibody (Sigma-Aldrich), 1:10,000 dilution.
Paraffin embedded tissue sections of TA muscles, inguinal white fat depots (igWAT) and epididymal white fat depots (epiWAT) were deparaffinized in CitriSolv. After rehydration, tissue sections were boiled in 0.01M citrate buffer (1.8 mM citric acid, 8.2 mM sodium citrate, pH 6.0) for 16 minutes. Endogenous peroxidase activity was neutralized by 0.3% H2O2 in 70% methanol Anti-Ucp1 antibody (Calbiochem) was 1:200 diluted and incubated with tissues sections overnight. IHC signals were developed by Vectastain ABC kit. […]
(In qPCR the cycle at which signal appears reflects the starting amount.)

[2] abbreviates: regenerating TA muscle cross-sections.

As to “*mA*mUmAmGmCmUmGmGmUmUmGmAmAmGmGmGmGmAmC*mC*mA*mA*mAChl [miR-133 ASO]”, in assay [1], the “infiltrating inflammatory cells in the epididymal white fat depots” value was “reduced numbers” and the “steatosis of the liver” value is reported as “reduced steatosis”. Besides, the glucose tolerance result in “IPGTT glucose tolerance” is reported as “much improved”. Further, the “surface temperature of treated hindlimbs higher than control hindlimbs” value with hindlimbs (mice fed with HFD) stood at 0.9 °C. In addition, the “surface temperature of treated hindlimbs higher than control hindlimbs” value in the assay with hindlimbs (mice fed with RD) worked out at 0.7 °C. Besides, in the assay on Ucp1 (3 months after a single injection in regenerating muscle), the “repression of miR-133a/b and induction of Ucp1 mRNA, duration” value is on record as “long-lasting effects”. The “Ucp1 protein expression in treated muscles by immunoblotting” value in the assay on Ucp1 (C57BL/6 mice, regular diet or high fat diet, 2 months after treatment) is “ectopically induced”. The “Ucp1 mRNA within injected regenerating muscle” value in the assay on Ucp1 (cardiotoxin-injured TA muscle, one month) is listed as “increased”. In addition, the “Ucp1 mRNA level in treated TA muscle” value in the assay with Ucp1 (frozen injury induced muscle regeneration) is listed as “similarly induced”. Besides, in the assay with Ucp1 (regenerated TA muscles, Pax7-CreER, R26R-tdTomato mice), the “Ucp1 protein by immunoblotting” value was “specifically detected”. In addition, the “numbers of interstitial cells and ORO-stained cells between regenerating myofibers” value in the assay on Ucp1 (regenerating TA muscle) was “markedly increased”. Further, in the assay with Ucp1 (setting [2]), the “Prdm16pos cells per cross-section (average)” value is listed as 31.6 per cross-section and the “Ucp1pos brown adipocytes per section (average)” value came out at 15.6 per section. For the same substance, in the assay on Ucp1 (tdTomato lineage tracing), the “share of Prdm16pos cells derived from satellite cells” value is listed as 76.8% and the “share of Ucp1pos brown adipocytes derived from satellite cells” value is recorded as 83.3%.
